# Experimental data taken from patent US11882835B2, “Benzimidazole compound having an optionally halogenated alkylenedioxy group or salt thereof, agricultural and horticultural insecticide comprising the compound or the salt, and method for using the insecticide” (NIHON NOHYAKU CO., LTD., priority 2018, dated 2024).
# Key:
# Plutella xylostella = assay: whole plant or invertebrate; details: in Brassica rapa, 144 h, read-out: activity level (corrected mortality rate) of P. xylostella
# Laodelphax striatellus = assay: Insecticidal test on Laodelphax striatellus (rice seedling dip); details: in Oryza sativa, 192 h, read-out: activity level (corrected mortality rate) of L. striatellus
# Haemonchus contortus = assay: Larval motility assay on Haemonchus contortus; format: in vivo; details: 96 h, 4 days, relative to DMSO only, read-out: percent motility inhibition, H. contortus L1 stage larvae
# Protocol: Larval motility assay on Haemonchus contortus DMSO diluted solutions of various compounds of the present invention were added at the final concentration of 50 ppm to the wells of a 96-well plate containing a predetermined conditioned medium. Twenty L1 stage larvae of H. contortus were introduced into each well of the 96-well plate. The plate was allowed to stand for 4 days, and then larval motility was examined. The percent motility inhibition in the wells of each treatment was calculated relative to the wells of treatment with DMSO only.
# Dirofilaria immitis = assay: Larval motility assay on Dirofilaria immitis; format: in vivo; details: 72 h, 3 days, relative to DMSO only, read-out: percent motility inhibition, D. immitis L1 stage larvae
# Protocol: Larval Motility Assay on Dirofilaria immitis
# Five hundred L1 stage larvae of D. immitis were diluted in a predetermined conditioned medium and introduced into each well of a 96-well plate. DMSO diluted solutions of various compounds of the present invention were added at the final concentration of 50 ppm to the wells of the 96-well plate. The plate was allowed to stand for 3 days, and then larval motility was examined. The percent motility inhibition in the wells of each treatment was calculated relative to the wells of treatment with DMSO only.
# Ctenocephalides felis = assay: Assay for oral parasiticidal activity against adults of Ctenocephalides felis; format: in vivo; details: read-out: mortality rate, adults of C. felis
# Protocol: Assay for Oral Parasiticidal Activity Against Adults of Ctenocephalides felis
# Newly-emerged adults of C. felis were placed into test cages (10 adults per test cage). DMSO diluted solutions of various compounds of the present invention were added to aliquots of bovine blood at the final concentration of 50 ppm and orally administered to the adults of C. felis using a feeder. The mortality rate was examined on the following day. Aberrant adults were regarded as the dead.
# Rhipicephalus sanguineus = assay: Assay for transdermal parasiticidal activity against nymphs of Rhipicephalus sanguineus; format: in vivo; details: 48 h, read-out: mortality rate, nymphs of R. sanguineus
# Source text: Assay for Transdermal Parasiticidal Activity Against Nymphs of Rhipicephalus sanguineus
# DMSO diluted solutions of various compounds of the present invention were individually diluted to the final concentration of 100 ppm with an acetone/triton solution and applied to the inside of vented sample bottles. After overnight drying, ten nymphs of R. sanguineus were introduced into each bottle, and the mortality rate was examined two days later. Aberrant adults were regarded as the dead.
Compound,mortality at 500 ppm (Plutella xylostella) [%],mortality at 500 ppm (Laodelphax striatellus) [%],inhibition at 50 ppm (Haemonchus contortus) [%],inhibition at 50 ppm (Dirofilaria immitis) [%],mortality at 50 ppm (Ctenocephalides felis) [%],mortality at 100 ppm (Rhipicephalus sanguineus) [%]
"CCSc1cc(C2CC2)cnc1-c1nc2cc3c(cc2n1C)OC(F)(F)O3 [Compound 1-1, 6-(5-cyclopropyl-3-ethylthiopyridin-2-yl)-2,2-difluoro-5-me thyl-5H-[1,3]dioxolo[4′,5′:4,5]benzo[1,2-d]imidazole]",100,100,,,,
"CCS(=O)(=O)c1cc(C2CC2)cnc1-c1nc2cc3c(cc2n1C)OC(F)(F)O3 [Compound 1-3, 6-(5-cyclopropyl-3-ethylsulfonyl-pyridin-2-yl)-2,2-difluoro-5-methyl-5H-[1,3]dioxolo[4′,5′:4,5]benzo[1,2-d]imidazole]",100,100,≥ 50,≥ 50,≥ 50,≥ 50
"CCSc1cc(C2CC2)cnc1-c1nc2cc3c(cc2n1C(F)F)OC(F)(F)O3 [Compound 1-7, 6-(5-cyclopropyl-3-ethylthiopyridin-2-yl)-2,2-difluoro-5-di fluoromethyl-5H-[1,3]dioxolo[4′,5′:4,5]benzo[1,2-d]imidazole]",100,,,,,
"CCS(=O)(=O)c1cc(C2CC2)cnc1-c1nc2cc3c(cc2n1C(F)F)OC(F)(F)O3 [Compound 1-9, 6-(5-cyclopropyl-3-ethylsulfonylpyridin-2-yl)-2,2-difluoro-5-difluoromethyl-5H-[1,3]dioxolo[4′,5′:4,5]benzo[1,2-d]imid azole]",100,,,,,
